According to ChEMBL document CHEMBL3885881, “DrugMatrix”:

Species: Rattus norvegicus
Experiment: DrugMatrix - Regimen: Daily Repeat
Format: toxicity, organism-based, Sprague-Dawley
Set-up: regimen Daily Repeat, gender Male, age 6-8 weeks
Details: in vivo, iv, vehicle 100 % SALINE; for ABSOLUTE MONOCYTE / ABSOLUTE SEGMENTED NEUTROPHIL / BASOPHIL / EOSINOPHIL / ERYTHROCYTE COUNT / HEMATOCRIT / HEMOGLOBIN / LEUKOCYTE COUNT / LYMPHOCYTE / MEAN CORPUSCULAR HEMOGLOBIN / MEAN CORPUSCULAR HEMOGLOBIN CONCENTRATION / MEAN CORPUSCULAR VOLUME / MONOCYTE / NEUTROPHIL / NUCLEATED RED BLOOD CELLS / PLATELET COUNT / ABSOLUTE BASOPHIL / ABSOLUTE EOSINOPHIL / ABSOLUTE LYMPHOCYTE: tissue Blood; for ALANINE AMINOTRANSFERASE / ALBUMIN / ALKALINE PHOSPHATASE / ASPARTATE AMINOTRANSFERASE / BLOOD UREA NITROGEN / CARBON DIOXIDE / CHLORIDE / CHOLESTEROL / CREATINE PHOSPHOKINASE / CREATININE / GLUCOSE / LACTATE DEHYDROGENASE / LIPASE / PHOSPHORUS / POTASSIUM / SODIUM / TOTAL BILIRUBIN / TOTAL PROTEIN / URIC ACID: tissue Plasma
[1] = 20 mg/kg, 120 h, dose level Low, time 5 day
[2] = 82 mg/kg, 72 h, dose level High, time 3 day
[3] = 82 mg/kg, 120 h, dose level High, time 5 day

NCC[C@H](O)C(=O)N[C@@H]1C[C@H](N)[C@@H](O[C@H]2O[C@H](CN)[C@@H](O)[C@H](O)[C@H]2O)[C@H](O)[C@H]1O[C@H]1O[C@H](CO)[C@@H](O)[C@H](N)[C@H]1O [AMIKACIN]
ABSOLUTE MONOCYTE [1]: 11 CELLS/uL | ABSOLUTE SEGMENTED NEUTROPHIL [1]: 480 CELLS/uL | BASOPHIL [1]: 0% | EOSINOPHIL [1]: 0% | ERYTHROCYTE COUNT [1]: 5.48 x10E6/uL | HEMATOCRIT [1]: 33% | HEMOGLOBIN [1]: 12.63 G/DL | LEUKOCYTE COUNT [1]: 3.67 x10E3/uL | LYMPHOCYTE [1]: 86.67% | MEAN CORPUSCULAR HEMOGLOBIN [1]: 23 pg | MEAN CORPUSCULAR HEMOGLOBIN CONCENTRATION [1]: 38.3 G/DL | MEAN CORPUSCULAR VOLUME [1]: 60.1 fL | MONOCYTE [1]: 0.33% | NEUTROPHIL [1]: 13% | NUCLEATED RED BLOOD CELLS [1]: 0 /100WBC | PLATELET COUNT [1]: 622.33 x10E3/uL | ALANINE AMINOTRANSFERASE [1]: 72.67 u/L | ALBUMIN [1]: 3.63 G/DL | ALKALINE PHOSPHATASE [1]: 187.33 u/L | ASPARTATE AMINOTRANSFERASE [1]: 329.33 u/L | BLOOD UREA NITROGEN [1]: 16 mg/dL | CARBON DIOXIDE [1]: 32.67 mmol/L | CHLORIDE [1]: 98.67 MEQ/L | CHOLESTEROL [1]: 81.33 mg/dL | CREATINE PHOSPHOKINASE [1]: 388 u/L | CREATININE [1]: 0.13 mg/dL | GLUCOSE [1]: 162.67 mg/dL | LACTATE DEHYDROGENASE [1]: 112 u/L | LIPASE [1]: 9.67 u/L | PHOSPHORUS [1]: 10.23 mg/dL | POTASSIUM [1]: 5.93 MEQ/L | SODIUM [1]: 142.37 MEQ/L | TOTAL BILIRUBIN [1]: 0.1 mg/dL | TOTAL PROTEIN [1]: 5.3 G/DL | URIC ACID [1]: 0.53 mg/dL | ABSOLUTE BASOPHIL [2]: 0 CELLS/uL | ABSOLUTE EOSINOPHIL [2]: 29 CELLS/uL | ABSOLUTE LYMPHOCYTE [2]: 10165.67 CELLS/uL | ABSOLUTE MONOCYTE [2]: 121.67 CELLS/uL | ABSOLUTE SEGMENTED NEUTROPHIL [2]: 950.33 CELLS/uL | BASOPHIL [2]: 0% | EOSINOPHIL [2]: 0.33% | ERYTHROCYTE COUNT [2]: 5.81 x10E6/uL | HEMATOCRIT [2]: 35.97% | HEMOGLOBIN [2]: 13.7 G/DL | LEUKOCYTE COUNT [2]: 11.27 x10E3/uL | LYMPHOCYTE [2]: 90% | MEAN CORPUSCULAR HEMOGLOBIN [2]: 23.6 pg | MEAN CORPUSCULAR HEMOGLOBIN CONCENTRATION [2]: 38.1 G/DL | MEAN CORPUSCULAR VOLUME [2]: 61.93 fL | MONOCYTE [2]: 1% | NEUTROPHIL [2]: 8.67% | NUCLEATED RED BLOOD CELLS [2]: 0.33 /100WBC | PLATELET COUNT [2]: 1125.33 x10E3/uL | ALANINE AMINOTRANSFERASE [2]: 50.67 u/L | ALBUMIN [2]: 4.17 G/DL | ALKALINE PHOSPHATASE [2]: 370.33 u/L | ASPARTATE AMINOTRANSFERASE [2]: 84 u/L | BLOOD UREA NITROGEN [2]: 14.33 mg/dL | CARBON DIOXIDE [2]: 35 mmol/L | CHLORIDE [2]: 98.67 MEQ/L | CHOLESTEROL [2]: 74.33 mg/dL | CREATINE PHOSPHOKINASE [2]: 385.33 u/L | CREATININE [2]: 0.18 mg/dL | GLUCOSE [2]: 178.33 mg/dL | LACTATE DEHYDROGENASE [2]: 142.67 u/L | LIPASE [2]: 9 u/L | PHOSPHORUS [2]: 11.27 mg/dL | POTASSIUM [2]: 6 MEQ/L | SODIUM [2]: 143.33 MEQ/L | TOTAL BILIRUBIN [2]: 0.2 mg/dL | TOTAL PROTEIN [2]: 5.97 G/DL | URIC ACID [2]: 0.7 mg/dL | ABSOLUTE BASOPHIL [3]: 0 CELLS/uL | ABSOLUTE EOSINOPHIL [3]: 0 CELLS/uL | ABSOLUTE LYMPHOCYTE [3]: 6237.33 CELLS/uL | ABSOLUTE MONOCYTE [3]: 19 CELLS/uL | ABSOLUTE SEGMENTED NEUTROPHIL [3]: 743.67 CELLS/uL | BASOPHIL [3]: 0% | EOSINOPHIL [3]: 0% | ERYTHROCYTE COUNT [3]: 5.27 x10E6/uL | HEMATOCRIT [3]: 33.87% | HEMOGLOBIN [3]: 13.13 G/DL | LEUKOCYTE COUNT [3]: 7 x10E3/uL | LYMPHOCYTE [3]: 89.33% | MEAN CORPUSCULAR HEMOGLOBIN [3]: 24.93 pg | MEAN CORPUSCULAR HEMOGLOBIN CONCENTRATION [3]: 38.8 G/DL | MEAN CORPUSCULAR VOLUME [3]: 64.2 fL | MONOCYTE [3]: 0.33% | NEUTROPHIL [3]: 10.33% | NUCLEATED RED BLOOD CELLS [3]: 0.33 /100WBC | PLATELET COUNT [3]: 1177.67 x10E3/uL | ALANINE AMINOTRANSFERASE [3]: 59.67 u/L | ALBUMIN [3]: 3.9 G/DL | ALKALINE PHOSPHATASE [3]: 382 u/L | ASPARTATE AMINOTRANSFERASE [3]: 82 u/L | BLOOD UREA NITROGEN [3]: 17.33 mg/dL | CARBON DIOXIDE [3]: 32.33 mmol/L | CHLORIDE [3]: 100 MEQ/L | CHOLESTEROL [3]: 63.67 mg/dL | CREATINE PHOSPHOKINASE [3]: 235.67 u/L | CREATININE [3]: 0.15 mg/dL | GLUCOSE [3]: 160.67 mg/dL | LACTATE DEHYDROGENASE [3]: 113.33 u/L | LIPASE [3]: 9.33 u/L | PHOSPHORUS [3]: 10.73 mg/dL | POTASSIUM [3]: 5.04 MEQ/L | SODIUM [3]: 143.97 MEQ/L | TOTAL BILIRUBIN [3]: 0.17 mg/dL | TOTAL PROTEIN [3]: 5.83 G/DL | URIC ACID [3]: 0.5 mg/dL
